*1 amine or outer side, *2 acyl side, *3 side chain or, on linkers, in order; H or OH if unused. Where a SMILES comes first, the peptide text is derived from it. Bridges are numbered along the chain shown (N, C = ends). [ ]: non-standard residue; d: D form. The star is where a group is joined. X5 = NC(=O)[C@H](CCCCNC(=O)CN1CCN(CC(=O)O)CCN(CC(=O)O)CCN(CC(=O)O)CC1)NC(=O)CCC(=O)NCCCOCCOCCOCCCN*; DOTA = O=C(O)CN1CCN(CC(=O)O)CCN(CC(=O)*)CCN(CC(=O)O)CC1; Trp(5-Cl) = N[C@@H](Cc1c[nH]c2ccc(Cl)cc12)C(=O)O; Pyridine(2,6-diCH2) = c1cc(C[*:1])nc(C[*:2])c1; X6 = c1cc(CSCCN[*:2])nc(C[*:1])c1; Hyp = O=C(O)[C@@H]1C[C@@H](O)CN1; X1 = O=C(CN1CCC(N[*:1])CC1)[*:2]; Suc = O=C(CCC(=O)[*:2])[*:1]; Api = NC1(C(=O)O)CCNCC1; Thp = NC1(C(=O)O)CCOCC1
What was measured:
[1] = molecular target: T1, human GIP receptor (bioGIPR) (Homo sapiens, UniProt P48546); assay: Surface plasmon resonance (SPR) based binding assay; details: Single Cycle Kinetic mode, 25° C.; for t1/2 Category: SPR dissociation half-life; for Kd: SPR, 1:1 Langmuir binding model, read-out: pKD Category (converted)
T1 construct: Biotinylate extracellular of the human GIP receptor (bioGIPR, Proteros biostructures GmbH, lot #02/2b); purchased Proteros biostructures GmbH lot #02/2b
T1 sequence (P48546 22-138 limits assumed): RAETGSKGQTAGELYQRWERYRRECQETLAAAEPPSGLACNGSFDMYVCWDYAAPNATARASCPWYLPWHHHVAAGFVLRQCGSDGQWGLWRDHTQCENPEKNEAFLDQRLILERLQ
Summary of the method: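 Binding was measured at 25 °C by single-cycle kinetics against a reference flow cell, with blank-run and drift correction, after capturing biotinylated GIPR extracellular domain to ~3500 RU. Running buffer: HBST, 0.1% DMSO. A 1:1 Langmuir model gave kinetic rates, KD, t1/2 and pKD.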

[2] = molecular target: T2, GIPR (CHO-K1-hGIPR cells) (Homo sapiens, UniProt P48546); assay: FACS binding assay; details: competition with 20 nM GIP-057, 4° C., 1 hour, read-out: pIC50 Category (converted)
T2 construct: host or cells: CHO-K1
T2 sequence (P48546 22-466): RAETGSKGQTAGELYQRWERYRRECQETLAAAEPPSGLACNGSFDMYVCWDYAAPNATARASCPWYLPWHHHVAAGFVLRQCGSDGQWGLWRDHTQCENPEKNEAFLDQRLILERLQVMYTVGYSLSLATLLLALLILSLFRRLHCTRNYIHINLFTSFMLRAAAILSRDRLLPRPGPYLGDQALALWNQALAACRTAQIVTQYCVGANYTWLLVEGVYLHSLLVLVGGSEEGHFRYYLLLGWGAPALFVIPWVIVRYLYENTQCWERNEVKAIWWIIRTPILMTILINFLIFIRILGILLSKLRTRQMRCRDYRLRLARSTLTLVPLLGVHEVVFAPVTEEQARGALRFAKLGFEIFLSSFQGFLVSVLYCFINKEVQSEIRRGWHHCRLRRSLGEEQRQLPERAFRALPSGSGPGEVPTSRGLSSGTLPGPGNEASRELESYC
Summary of the method: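 Read-out: flow cytometric median fluorescence intensity, APC/Cy5 channel, plotted vs peptide conc.; 4PL fit → EC50/pEC50 or IC50/pIC50. Cells: CHO-K1-hGIPR, Accutase-detached, 500.000/mL in PBS + 1% FCS. Detection: APC-streptavidin 1 μg/mL, 30 min, on ice.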

Row | SMILES | t1/2 Category [1] | Kd [1] [nM] | IC50 [2] [nM]
1 | CC[C@H](C)[C@@H]1NC(=O)[C@H](CC(C)C)NC(=O)C2(CCOCC2)NC(=O)[C@@H](NC(=O)[C@@H](CC(C)C)NC(=O)[C@H](CCC(=O)O)NC(=O)[C@@H]2C[C@@H](O)CN2C(=O)[C@H](Cc2c[nH]c3ccc(Cl)cc23)NC(=O)[C@H](Cc2c[nH]c3ccccc23)NC(=O)[C@H](CC(=O)O)NC(=O)CN2CCC(NC(=O)CN3CCN(CC(=O)O)CCN(CC(=O)O)CCN(CC(=O)O)CC3)CC2)CSCc2cccc(n2)CSCCNC1=O [GIP-103, DOTA-APAc-Asp-Trp-5Clw-Hyp-Glu-leu-[Cys(2Lut)-Thp-Leu-Ile-AET]] ({DOTA}-[X1]DW[Trp(5-Cl)][Hyp]E[dL]C[Thp]LI; linker 8-C via X6) | A (t1/2 values>15 min) | < 1 | < 10
2 | CC[C@H](C)[C@@H]1NC(=O)[C@H](CC(C)C)NC(=O)C2(CCOCC2)NC(=O)[C@@H](NC(=O)[C@@H](CC(C)C)NC(=O)[C@H](CCC(=O)O)NC(=O)[C@@H]2C[C@@H](O)CN2C(=O)[C@H](Cc2c[nH]c3ccc(Cl)cc23)NC(=O)[C@H](Cc2c[nH]c3ccccc23)NC(=O)[C@H](CC(=O)O)NC(=O)CN2CCC(NC(=O)CN3CCN(CC(=O)O)CCN(CC(=O)O)CCN(CC(=O)O)CC3)CC2)CNCc2cccc(n2)CSCCNC1=O [GIP-106, DOTA-APAc-Asp-Trp-5Clw-Hyp-Glu-leu-[Dap(2Lut)-Thp-Leu-Ile-AET]] | A (t1/2 values>15 min) | 1 to 7.94 | < 10
3 | CC[C@H](C)[C@@H]1NC(=O)[C@H](CC(C)C)NC(=O)C2(CCOCC2)NC(=O)[C@@H](NC(=O)[C@@H](CC(C)C)NC(=O)[C@H](CCC(=O)O)NC(=O)[C@@H]2C[C@@H](O)CN2C(=O)[C@H](Cc2c[nH]c3ccc(Cl)cc23)NC(=O)[C@H](Cc2c[nH]c3ccccc23)NC(=O)[C@H](CC(=O)O)NC(=O)CN2CCC(NC(=O)CN3CCN(CC(=O)O)CCN(CC(=O)O)CCN(CC(=O)O)CC3)CC2)CNCc2cccc(c2)CSCCNC1=O [GIP-107, DOTA-APAc-Asp-Trp-5Clw-Hyp-Glu-leu-[Dap(3MeBn)-Thp-Leu-Ile-AET]] | A (t1/2 values>15 min) | < 1 | < 10
4 | CC[C@H](C)[C@@H]1NC(=O)[C@H](CC(C)C)NC(=O)C2(CCOCC2)NC(=O)[C@@H](NC(=O)[C@@H](CC(C)C)NC(=O)[C@H](CCC(=O)O)NC(=O)[C@@H]2C[C@@H](O)CN2C(=O)[C@H](Cc2c[nH]c3ccc(Cl)cc23)NC(=O)[C@H](Cc2c[nH]c3ccccc23)NC(=O)CCC(=O)O)CSCc2cccc(n2)CSC[C@@H](C(=O)NCCCOCCOCCOCCCNC(=O)CCC(=O)N[C@@H](CCCCNC(=O)CN2CCN(CC(=O)O)CCN(CC(=O)O)CCN(CC(=O)O)CC2)C(N)=O)NC1=O [GIP-108, HO-Succinyl-Trp-5Clw-Hyp-Glu-leu-[Cys(2Lut)-Thp-Leu-Ile-Cys]-Ttds-Lys(DOTA)-NH2] (Suc-W[Trp(5-Cl)][Hyp]E[dL]C[Thp]LIC-X5; linker 6-10 via Pyridine(2,6-diCH2)) | A (t1/2 values>15 min) | < 1 | < 10
5 | CC[C@H](C)[C@@H]1NC(=O)[C@H](CC(C)C)NC(=O)C2(CCOCC2)NC(=O)[C@@H](NC(=O)[C@@H](CC(C)C)NC(=O)[C@H](CCC(=O)O)NC(=O)[C@@H]2C[C@@H](O)CN2C(=O)[C@H](Cc2c[nH]c3ccc(Cl)cc23)NC(=O)[C@H](Cc2c[nH]c3ccccc23)NC(=O)CCC(=O)O)CSCc2cccc(n2)CSC[C@@H](C(=O)NC2CCN(CC(=O)N[C@@H](CCCCNC(=O)CN3CCN(CC(=O)O)CCN(CC(=O)O)CCN(CC(=O)O)CC3)C(N)=O)CC2)NC1=O [GIP-109, HO-Succinyl-Trp-5Clw-Hyp-Glu-leu-[Cys(2Lut)-Thp-Leu-Ile-Cys]-APAc-Lys(DOTA)-NH2] (Suc-W[Trp(5-Cl)][Hyp]E[dL]C[Thp]LIC[X1]K(DOTA)-NH2; linker 6-10 via Pyridine(2,6-diCH2)) | A (t1/2 values>15 min) | < 1 | < 10
6 | CC[C@H](C)[C@@H]1NC(=O)[C@H](CC(C)C)NC(=O)C2(CCN(C(=O)CN3CCN(CC(=O)O)CCN(CC(=O)O)CCN(CC(=O)O)CC3)CC2)NC(=O)[C@@H](NC(=O)[C@@H](CC(C)C)NC(=O)[C@H](CCC(=O)O)NC(=O)[C@@H]2C[C@@H](O)CN2C(=O)[C@H](Cc2c[nH]c3ccc(Cl)cc23)NC(=O)[C@H](Cc2c[nH]c3ccccc23)NC(=O)CCC(=O)O)CSCc2cccc(n2)CSCCNC1=O [GIP-110, HO-Succinyl-Trp-5Clw-Hyp-Glu-leu-[Cys(2Lut)-Apc(DOTA)-Leu-Ile-AET]] (Suc-W[Trp(5-Cl)][Hyp]E[dL]C[Api](DOTA)LI; linker 6-C via X6) | A (t1/2 values>15 min) | < 1 | < 10

— patent US20250296971A1, “GASTRIC INHIBITORY PEPTIDE RECEPTOR LIGANDS” (priority 2021, published 2025)
